Consider eight molecules from PMC8229286, “Pharmacokinetics-Driven Evaluation of the Antioxidant Activity of Curcuminoids and Their Major Reduced Metabolites—A Medicinal Chemistry Approach” (Molecules, 2021).

Data set [1] can be described thus: Experimental logP in octanol-water and toluene-water systems. The note with it: for ΔlogPoct_tol: logPo/w − logPtol/w; for logP at 24 h: octanol/water; for logPtol/w: toluene-water, average ± S.E.M, five parallel experiments.
Description: Lipophilicity measurements of hydrocurcumins were performed by dissolving the compounds in the organic solvents (octanol and toluene) at 1mg/mL concentration and mixing them with water (1:5 and 1:10 ratios, each in five replicates). After 24 h the concentration of the compounds in the aqueous phase were calculated by using a calibration dilution series measured on RP-HPLC system. The concentration of the organic phase was calculated from the concentration of the aqueous phase.
A short description of data set [2]: Chemical stability in PBS pH 7.4. The note with it: between 0–2 h at 37 °C in PBS, Stable = no chemical change detected during the evaluation time (4 h).
Description: (§1) Kinetic solubility was tested with 5% (v/v) DMSO as cosolvent in phosphate buffered saline (PBS, 0.01 M phosphate buffer pH 7.4, 0.138 M NaCl, 0.0027 M KCl, without Ca^2+, Mg^2+) at room temperature for 2 h. Chemical stability was tested with 10% (v/v) DMSO as cosolvent in PBS pH 7.4 at 37 °C for 4 h. Metabolic stability was investigated on human liver microsomes (1 mg/mL), which were preincubated with 25 µM test compounds for 5 min at 37 °C in 0.1 M Tris-HCl buffer, pH 7.4 contained 6.67 mM Na-pyrophosphate, 5.56 mM MgCl2, 5.56 mM glucose-6-phosfate, 4.63 U/mL glucose-6-phosphate dehydrogenase. The reaction was initiated by adding preincubated cofactor (37 °C,10 mM NADPH). After 10, 30, and 60 min incubation at 37 °C, the reaction was stopped by adding equal volume of cooled methanol (−20 °C). The samples were centrifuged at 20,000 g for 5 min. The supernatant and all above described test solutions were analyzed by LC-MS/MS. LC-MS analysis was carried out on an Agilent 1200 liquid chromatography system coupled with an 6410 QQQ-MS (Agilent Technologies, Palo Alto, CA, USA). Analysis was on a Cortecs C18 column (150 × 4.6 mm, 2.7 µm, Waters) at 40 °C, with a mobile phase flow rate of 1.45 mL/min. Composition of eluent A was 0.1% (v/v) trifluoroacetic acid (TFA) in water (pH 1.9). A linear gradient of 0–100% B (acetonitrile (AcN) and water in 95:5 (v/v)) was applied at a range of 0–17 min, then 100% B at 17–22 min. The injection volume was set at 20 µL and chromatograms were registered at 220 ± 4 nm. The MSD operating parameters in ESI positive ionization mode were as follows: scan ion mode (100–800 m/z), drying gas temperature 350 °C, nitrogen flow rate 12 L/min, nebulizer pressure 40 psi, quadrupole temperature 100 °C, capillary voltage 4000 V, fragmentor voltage 135 V.
Data set [3] is described as follows: Metabolic stability in human liver microsomes. The settings on record: for CLint scaled at 25 µM / half-life at 25 µM: human, human liver microsomes, pH 7.4; for Met.stab. in HLM t1/2: human liver microsomes 1 mg/mL, 25 µM compound, 37 °C, mean ± S.E.M, n = 3; for Met.stab. in HLM Cl'int: intrinsic clearance calculated from in vitro t1/2 data in HLM.
Description: as §1
Data set [4] is described as follows: Kinetic solubility in PBS. The settings on record: for solubility kinetic at 2 h: PBS with 5% (v/v) DMSO, pH 7.4, aqueous with cosolvent or surfactant or cyclodextrin, kinetic from dmso stock; for Kinetic Solubility: after 2 h, at 37 °C in PBS, pH 7.4, mean ± S.E.M, n = 3.
Description: as §1
The next data set in a line: GI-PAMPA permeability. The settings on record: for Papp at 4 h, 100 µM: PAMPA, pH 7.4; for GI-PAMPA MR (membrane retention) / GI-PAMPA Pe: PBS pH 7.4, 37 °C, 4 h. On the technique in general: The PAMPA barrier holds no transporters, so it reflects passive diffusion.
A short description of data set [5]: DPPH free radical scavenging assay. The settings on record: 30 min, absorbance 550 nm; average ± S.E.M. The protocol: The DPPH free radical scavenging assay was performed based on the method of Fukumoto et al. with some modification. The measurement was performed on a 96-well microplate. Microdilution series of the samples (0.2 mg/mL stock solution, dissolved in HPLC grade MeOH) were made starting with 100 μL. To each well 100 μL of DPPH reagent (100 μM in HPLC grade MeOH) was added to gain the final volume of 200 μL. The microplates were kept in dark, and the absorbance was measured after 30 min at 550 nm using a FluoStar Optima plate reader (software version 2.20R2, BMG Labtech, Ortenberg, Germany). Methanol was used as blank. The scavenging activity was calculated as Inhibition (%) = (A0 − As)/A0 × 100, and EC50 values were calculated by Graph Pad Prism (GraphPad Software, Inc., La Jolla, CA, USA).

The nature of the next data set: BBB-PAMPA permeability. The settings on record: for Papp at 4 h, 100 µM: PAMPA.
Data set [6] can be described thus: AAPH assay (oxygen radical absorbance capacity, ORAC). The note with it: concentration for 50% antioxidant capacity; average ± S.E.M. The protocol: Antioxidant capacity measurement was carried out on 96-well microplates, based on oxygen radical absorbance capacity (ORAC) assay. A 20 μL aliquot of the sample (6 dilutions with buffer from 10 μg/mL stock solution dissolved in phosphate buffer, containing 1% MeOH), 120 μL of fluorescein (dissolved in phosphate buffer, pH = 7.4, 70 nM final concentration), and 60 μL of 2,2′-azobis(2-methylpropionamidine) dihydrochloride (AAPH, dissolved in phosphate buffer, pH = 7.4, 12 mM final concentration) were pipetted into each well. Each measurement was performed twice in duplicates. Each plate contained six dilutions of trolox as the standard, and phosphate buffer as blank. Flourescence (excitation at 485 nm and emission at 520 nm) was measured over a 3 h period with 1.5-min cycle intervals by a FluoStar Optima plate-reader (BMG Labtech GmbH). The antioxidant capacity was calculated for each concentration with the following formula: antioxidant capacity = (AUCAntioxidant − AUCBlank)/AUCBlank × 100 where AUC is the area under curve obtained for the sample and blank assays. Based on the linear correlation between the concentration of the samples and the antioxidant capacity, IC50 values could be obtained, which define the concentration (in µM) of each compound required to have 50% antioxidant capacity defined by the previous equation.

Details of data set [7]: method as in PMID 17999464. The note with it: cited from earlier work.
The conditions of data set [8]: pH 7.4.
Description: (§2) BBB and GI permeability was determined by using tissue-specific parallel artificial membrane permeability assay (GI-PAMPA [46], BBB-PAMPA [47]) models. Briefly, a 96-well acceptor plate and a 96-well filter plate were assembled into a sandwich. The hydrophobic filter material of the 96 well filter plate was coated by the mixture of phosphatidylcholine:cholesterol 2:1 (5 µL, 4 % (w/v) in dodecane: GI-PAMPA) or by porcine brain lipid (PBL) (5 µL, 2.6 % (w/v) in dodecane:hexane 25:75 v/v%: BBB-PAMPA). Subsequently, the acceptor wells at the bottom of the sandwich were filled with 300 µL of 10 mM PBS solution with 5% DMSO adjusted to pH 7.4. The donor wells at the top of the sandwich were hydrated with 150 µL of test compound solution. The test compound solutions were prepared in 100 times dilution. Firstly, a 10 mM stock solution was prepared from the corresponding compound in DMSO, then it was diluted with PBS (pH 6.5: GI-PAMPA or pH 7.4: BBB-PAMPA) to get 5% mixture followed by filtration through a MultiScreen Solubility filter plate. The resulting sandwich was then incubated at 37 °C for 4h. After the incubation, PAMPA sandwich plates were separated and compound concentrations in donor and acceptor solutions were investigated by HPLC-DAD. HPLC analyses were performed using a Shimadzu Prominence Modular HPLC system (Shimadzu Corporation, Kyoto, Japan) on a Kinetex® 2.6mm C18 100 Å LC column (30 × 3 mm) at 45 °C. Mobile phase flow rate was 1.1 mL/min using a gradient of AcN and 0.1% (v/v) formic acid in water (from 5% AcN to 95% in 2.5 min). Chromatograms were recorded at the wavelength of 200–500 nm, integration was carried out at the UVmax of each compound. The applied injection volume was 6 μL.
For data set [9] the following is noted: pH 7.4. The source holds these as a separate data set.
Description: as §1
The conditions of data set [10]: microsomes.
Description: as §1

≈ marks a conversion by molar mass, not a printed value. Like-named read-outs stand apart in the source and are kept apart here.

For orientation: logP means a log measure of how a compound divides between an organic and an aqueous phase. Lower therefore signals lower lipophilicity. As usually defined, the CLint scaled is the rate of metabolic loss divided by the concentration. Higher therefore signals rapid turnover. In general, kinetic solubility refers to the concentration staying in solution when a stock, usually in DMSO, is diluted into the medium. The term Papp denotes a coefficient for how fast a substance crosses the barrier. Read a low Papp as slow passage. One may read the IC50 as the concentration that gives 50% inhibition. A word on the half-life: it is the time needed for the level to fall by half in the phase considered. A lower half-life goes with fast loss.

Description for BBB-PAMPA permeability: as §2
Description for GI-PAMPA permeability: as §2

In data set [1], `COc1cc(CCC(=O)CC(O)CCc2ccc(O)c(OC)c2)ccc1O` (stereo not shown) [6HC, hexahydrocurcumin] gave a ΔlogPoct_tol of 0.46, a logP at 24 h of 2.15 ± 0.01 and a logPtol/w of 1.69 ± 0.03. Also, the “Chemical Stability Shelf-Life” value in data set [2] is on record as “Stable ^#”. Moreover, in data set [3], the CLint scaled at 25 µM is 3.3 mL/min/kg. The molecule further yielded a kinetic solubility at 2 h in data set [4] of 74.1 ± 0.3 µM (≈ 27.7 µg/mL). In the data set “GI-PAMPA permeability”, the Papp at 4 h, 100 µM was found to be 0.37 ± 0.02 ×10⁻⁶ cm/s and the “GI-PAMPA MR (membrane retention)” value was 5.0 ± 0.6 %. Further, the midpoint of inhibition in [5], the IC50, lay at 9.9 ± 0.9 µM. The molecule also came in with a Papp at 4 h, 100 µM in the data set “BBB-PAMPA permeability” of 1.25 ± 0.01 ×10⁻⁶ cm/s. Moreover, the “BBB-PAMPA MR (membrane retention)” value in “BBB-PAMPA permeability” (PBS pH 6.5→pH 7.4, 37 °C, 4 h) stood at 13.3 ± 0.5 %. Moreover, the concentration for half-maximal inhibition (IC50) in [6] came out at 0.39 ± 0.06 µM.
In data set [1], `COc1cc(CCC(O)CC(O)CCc2ccc(O)c(OC)c2)ccc1O` (stereo not shown) [8HC, octahydrocurcumin] yielded a ΔlogPoct_tol of 0.75, a log partition coefficient (logP) at 24 h of 2.3 ± 0.02 and a logPtol/w of 1.55 ± 0.14. In addition, the “Chemical Stability Shelf-Life” value in data set [2] is on record as “Stable ^#”. In [3], the intrinsic metabolic clearance (CLint scaled) at 25 µM is 1.4 mL/min/kg and the half-life at 25 µM is 3.86 ± 0.56 h. In [4], this molecule displayed a solubility (kinetic) at 2 h of 72.9 ± 0.9 µM (≈ 27.4 µg/mL). For the same molecule, in “GI-PAMPA permeability”, the Papp at 4 h, 100 µM turned out to be 0.24 ± 0.01 ×10⁻⁶ cm/s and the “GI-PAMPA MR (membrane retention)” value came to 4.4 ± 0.2 %. The IC50 in data set [5] is 11.4 ± 1 µM. Besides, in the data set “BBB-PAMPA permeability”, the apparent permeability (Papp) at 4 h, 100 µM is 0.97 ± 0.02 ×10⁻⁶ cm/s. The “BBB-PAMPA MR (membrane retention)” value in the data set “BBB-PAMPA permeability” (PBS pH 6.5→pH 7.4, 37 °C, 4 h) turned out to be 8.9 ± 1.4 %. The molecule further yielded an IC50 in data set [6] of 0.43 ± 0.11 µM.
Regarding `COc1cc(CCC(O)CC(O)CCc2ccc(O)cc2)ccc1O` (stereo not shown) [8HDC, octahydro-demethoxycurcumin], the “Chemical Stability Shelf-Life” value in data set [2] is listed as “Stable ^#”. In data set [3], the CLint scaled at 25 µM was 0.9 mL/min/kg and the half-life at 25 µM amounted to 6.08 ± 0.957 h. For the same molecule, the kinetic solubility at 2 h in data set [4] worked out at 68.7 ± 0.7 µM (≈ 23.8 µg/mL). Moreover, in “GI-PAMPA permeability”, the “GI-PAMPA MR (membrane retention)” value is listed as 1.7 ± 0.3 % and the “GI-PAMPA Pe” value is listed as 2.2 ± 0.1 * ·10^−7 cm/s. Half-maximal inhibition in [5] (IC50) required 33.1 ± 0.8 µM. In the data set “BBB-PAMPA permeability”, this molecule gave an apparent permeability (Papp) at 4 h, 100 µM of 0.53 ± 0.07 ×10⁻⁶ cm/s. In the data set “BBB-PAMPA permeability” (PBS pH 6.5→pH 7.4, 37 °C, 4 h), the “BBB-PAMPA MR (membrane retention)” value is listed as 14.9 ± 1.9 %. The same molecule registered an IC50 in [6] of 0.49 ± 0.29 µM.
On to `COc1cc(/C=C/C(O)=C/C(=O)/C=C/c2ccc(O)cc2)ccc1O` [DMC, demethoxycurcumin, reference compound], for which the “Chemical Stability Shelf-Life” value in [2] is reported as 22.1 ± 0.2 min. In [3], this molecule showed a CLint scaled at 25 µM of 8.3 mL/min/kg and a half-life at 25 µM of 0.63 ± 0.015 h. Further, the solubility (kinetic) at 2 h in [4] came to 5.7 ± 0.9 µM (≈ 1.93 µg/mL). Further, in “GI-PAMPA permeability”, the Papp at 4 h, 100 µM was determined as 1.06 ± 0.06 ×10⁻⁶ cm/s and the “GI-PAMPA MR (membrane retention)” value is 85.6 ± 0.5%. Moreover, 16.8 ± 0.7 µM corresponded to half-maximal inhibition in [5] (IC50). The “BBB-PAMPA MR (membrane retention)” value in the data set “BBB-PAMPA permeability” (PBS pH 6.5→pH 7.4, 37 °C, 4 h) came to 98.3 ± 0.1%. In addition, in data set [6], the half-inhibitory concentration (IC50) was 0.49 ± 0.03 µM.
Regarding `Cc1c(C)c2c(c(C)c1O)CCC(C)(C(=O)O)O2` (stereo not shown) [Trolox, reference compound], the concentration for half-maximal inhibition (IC50) in [5] turned out to be 5.6 ± 0.1 µM; in data set [6], 2.02 ± 0.13 µM.
For the molecule Curcumin [reference compound], in [2], the “Chemical Stability Shelf-Life” value came to 29.7 ± 0.6 min. Further, in data set [3], the “Met.stab. in HLM t1/2” value was 1.18 ± 0.085 h and the “Met.stab. in HLM Cl'int” value is on record as 4.5 ± 0.3 mL/min/kg. The “Major metabolite identified in the microsomal system (LC-MS)” value in [3] (semi-qualitative, by m/z change and retention time, Table S1) is 6HC as a major metabolite. Besides, the “Kinetic Solubility” value in [4] amounted to 3.1 ± 0.1 µM. In “GI-PAMPA permeability”, the “GI-PAMPA MR (membrane retention)” value worked out at 90.6 ± 0.3% and the “GI-PAMPA Pe” value is reported as 5.0 ± 0.4 ·10^−7 cm/s. For the same molecule, in data set [5], the IC50 was 11.8 ± 0.1 µM. In [7], the “Safe human consumption amount” value was “up to 12 g/day”. In addition, the “BBB-PAMPA MR (membrane retention)” value in the data set “BBB-PAMPA permeability” (PBS pH 6.5→pH 7.4, 37 °C, 4 h) worked out at 96.7 ± 0.4%. The IC50 in data set [6] stood at 0.32 ± 0.1 µM.
In the case of tetrahydro-demethoxycurcumin [4HDC], the “Chemical Stability Shelf-Life” value in data set [2] is given as “Stable ^#”. Besides, in data set [3], the “Met.stab. in HLM t1/2” value was found to be 0.0722 ± 0.00033 h and the “Met.stab. in HLM Cl'int” value is 72.0 ± 0.4 mL/min/kg. Further, in data set [4], the “Kinetic Solubility” value amounted to 69.5 ± 3.1 µM. In the data set “GI-PAMPA permeability”, the “GI-PAMPA MR (membrane retention)” value is reported as 12.9 ± 1.6 % and the “GI-PAMPA Pe” value is on record as 20.4 ± 0.3 * ·10^−7 cm/s. This molecule also had a 50% inhibitory concentration (IC50) in [5] of 14.2 ± 0.5 µM. Further, in “BBB-PAMPA permeability” (PBS pH 6.5→pH 7.4, 37 °C, 4 h), the “BBB-PAMPA MR (membrane retention)” value worked out at 40.9 ± 1.5 % and the “BBB-PAMPA Pe” value is listed as 20.7 ± 0.5 ·10^−7 cm/s. The molecule further returned an IC50 in data set [6] of 0.41 ± 0.03 µM.
For the molecule tetrahydrocurcumin [4HC], the “BBB-PAMPA MR (membrane retention)” value stood at 34.4 ± 0.6 %. Also, the “GI-PAMPA Pe” value in data set [8] (4 h, 100 µM) is reported as 30.3 ± 1.3 * ·10^−7 cm/s. In addition, in data set [8], the “GI-PAMPA MR (membrane retention)” value came to 13.3 ± 0.4 %. Moreover, in [9], the “Kinetic Solubility” value is 70.3 ± 0.2 µM. In addition, where the note is “4 h, 100 µM”, the “BBB-PAMPA Pe” value is listed as 31.3 ± 1.1 ·10^−7 cm/s. Also, the “Met.stab. in HLM t1/2” value in [10] (human) amounted to 4.34 ± 0.01 min. For the same molecule, in data set [10], the “Met.stab. in HLM Cl'int” value was determined as 71.8 ± 0.1 mL/min/kg. Moreover, the midpoint of inhibition in data set [5], the IC50, lay at 9.8 ± 0.2 µM. The molecule also came in with an IC50 in [6] of 0.43 ± 0.04 µM.
